Assay results reported in PubChem BioAssay (NCI).
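Step 1: Grow cells in 96-well plates. Step 2: Expose to compound for 48 hours at 5 concentrations. Step 3: Interpolate endpoints linearly; if unreached, use highest concentration. The concentration for full growth arrest is given as TGI.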

Legend:
Experiment in all cases: NCI anticancer screen, dose series, 48 h
A549 NSCLC = system: A549 NSCLC
IGROV1 ovarian = system: IGROV1 ovarian
SN12C renal = system: SN12C renal
MDA-MB-435 = system: MDA-MB-435
SNB-19 CNS = system: SNB-19 CNS
HOP-92 NSCLC = system: HOP-92 NSCLC
MCF7 breast = system: MCF7 breast
UACC-62 melanoma = system: UACC-62 melanoma
HCC-2998 colon = system: HCC-2998 colon
OVCAR-4 ovarian = system: OVCAR-4 ovarian

For `N#CC1=C(N)C(C#N)(C#N)C(c2ccc(F)cc2)C=C1C1CC1` (stereo not given), the TGI (A549 NSCLC) was 41.7 µM, the TGI (IGROV1 ovarian) was 25.5 µM and the TGI (SN12C renal) was 10.3 µM. It also gave a TGI (MDA-MB-435) of 12.4 µM, a TGI (SNB-19 CNS) of 27.9 µM and a TGI (HOP-92 NSCLC) of 27 µM. The TGI (MCF7 breast) was 17.1 µM, the TGI (UACC-62 melanoma) was 21.5 µM and the TGI (HCC-2998 colon) was 25.4 µM.

With `OC1CCCC1C(O)(C(F)(F)F)C(F)(F)F` (stereo not given) the TGI (A549 NSCLC) was over 100 µM, the TGI (IGROV1 ovarian) was over 100 µM and the TGI (SN12C renal) was over 100 µM. For the same molecule, the TGI (MDA-MB-435) was over 100 µM, the TGI (SNB-19 CNS) was over 100 µM and the TGI (OVCAR-4 ovarian) was over 100 µM. For the same molecule, the TGI (HOP-92 NSCLC) was over 100 µM, the TGI (MCF7 breast) was over 100 µM and the TGI (UACC-62 melanoma) was over 100 µM. It also gave a TGI (HCC-2998 colon) of over 100 µM.

Work on `Cn1c(=O)c2c(-c3ccccc3)onc2n(C)c1=O` yielded a TGI (A549 NSCLC) of over 100 µM, a TGI (IGROV1 ovarian) of 55.3 µM and a TGI (SN12C renal) of over 100 µM. It also gave a TGI (MDA-MB-435) of over 100 µM, a TGI (SNB-19 CNS) of over 100 µM and a TGI (OVCAR-4 ovarian) of over 100 µM. It also gave a TGI (HOP-92 NSCLC) of over 100 µM, a TGI (MCF7 breast) of over 100 µM and a TGI (UACC-62 melanoma) of over 100 µM. For the same molecule, the TGI (HCC-2998 colon) was 90.2 µM.

`CC(=O)/C=C/C=C(\C)CC/C=C(\C)CC(C)C` gave a TGI (A549 NSCLC) of over 100 µM, a TGI (IGROV1 ovarian) of over 100 µM and a TGI (SN12C renal) of 96.2 µM. The TGI (MDA-MB-435) was 77.1 µM, the TGI (SNB-19 CNS) was over 100 µM and the TGI (OVCAR-4 ovarian) was over 100 µM. For the same molecule, the TGI (HOP-92 NSCLC) was 27.4 µM, the TGI (MCF7 breast) was 57.9 µM and the TGI (UACC-62 melanoma) was 49.2 µM. The TGI (HCC-2998 colon) was 34.7 µM.

`NC(Cc1cc(I)c(O)c(I)c1)C(=O)O` (stereo not given) was tested, and the TGI (A549 NSCLC) was over 500 µM, the TGI (IGROV1 ovarian) was over 500 µM and the TGI (SN12C renal) was over 500 µM. It also gave a TGI (SNB-19 CNS) of over 500 µM, a TGI (OVCAR-4 ovarian) of 332 µM and a TGI (HOP-92 NSCLC) of over 107 µM. For the same molecule, the TGI (MCF7 breast) was over 500 µM, the TGI (UACC-62 melanoma) was over 357 µM and the TGI (HCC-2998 colon) was over 500 µM.

For `CS(=O)(=O)OCCN1CCC2(CC1)SSC1(CCN(CCOS(C)(=O)=O)CC1)S2`, the TGI (A549 NSCLC) was over 100 µM, the TGI (IGROV1 ovarian) was over 100 µM and the TGI (SN12C renal) was over 100 µM. The TGI (MDA-MB-435) was over 100 µM, the TGI (SNB-19 CNS) was over 100 µM and the TGI (OVCAR-4 ovarian) was over 100 µM. For the same molecule, the TGI (MCF7 breast) was 44.9 µM and the TGI (UACC-62 melanoma) was over 100 µM.

For `COc1cccc(NC(=O)CSc2nnc(-c3ccc(N=Cc4ccc(Cl)cc4)cc3)o2)c1`, the TGI (A549 NSCLC) was 69.6 µM, the TGI (SN12C renal) was 43 µM and the TGI (SNB-19 CNS) was 53.2 µM. For the same molecule, the TGI (OVCAR-4 ovarian) was over 100 µM and the TGI (UACC-62 melanoma) was 35.1 µM.

Work on `Cc1ccc(S(=O)(=O)n2cncc2CO)cc1` yielded a TGI (A549 NSCLC) of over 100 µM, a TGI (IGROV1 ovarian) of over 100 µM and a TGI (SN12C renal) of over 100 µM. The TGI (MDA-MB-435) was over 100 µM, the TGI (SNB-19 CNS) was over 100 µM and the TGI (OVCAR-4 ovarian) was over 100 µM. The TGI (MCF7 breast) was over 100 µM, the TGI (UACC-62 melanoma) was over 100 µM and the TGI (HCC-2998 colon) was over 100 µM.

Molecule `Cc1cc(Cc2c(F)c(F)c(Cc3cc(C)no3)c(F)c2F)on1` has a TGI (A549 NSCLC) of 25.8 µM, a TGI (IGROV1 ovarian) of over 100 µM and a TGI (SN12C renal) of over 100 µM. It also gave a TGI (MDA-MB-435) of over 100 µM, a TGI (SNB-19 CNS) of over 100 µM and a TGI (OVCAR-4 ovarian) of over 100 µM. It also gave a TGI (HOP-92 NSCLC) of over 100 µM, a TGI (MCF7 breast) of over 100 µM and a TGI (UACC-62 melanoma) of over 100 µM.

Molecule `O=C(Nn1c(-c2ccccc2)nc2ccccc2c1=O)c1ccccn1` has a TGI (A549 NSCLC) of over 100 µM, a TGI (IGROV1 ovarian) of over 100 µM and a TGI (SN12C renal) of over 100 µM. It also gave a TGI (MDA-MB-435) of over 100 µM, a TGI (SNB-19 CNS) of over 100 µM and a TGI (OVCAR-4 ovarian) of over 100 µM. The TGI (HOP-92 NSCLC) was over 100 µM, the TGI (UACC-62 melanoma) was over 100 µM and the TGI (HCC-2998 colon) was over 100 µM.

In the case of `Cc1ccc(C(=O)N(C(C)C)C(C)C)cc1N=NN(C)C`, the TGI (A549 NSCLC) is reported as over 100 µM, the TGI (IGROV1 ovarian) is reported as over 100 µM and the TGI (SN12C renal) is reported as over 100 µM. For the same molecule, the TGI (MDA-MB-435) was over 100 µM, the TGI (SNB-19 CNS) was over 100 µM and the TGI (OVCAR-4 ovarian) was over 100 µM. For the same molecule, the TGI (HOP-92 NSCLC) was over 100 µM, the TGI (MCF7 breast) was over 100 µM and the TGI (UACC-62 melanoma) was over 100 µM. The TGI (HCC-2998 colon) was over 100 µM.

`O=C(c1ccc2ccccc2c1)C1S(=O)(=O)OCCOS1(=O)=O` showed a TGI (A549 NSCLC) of over 100 µM, a TGI (SN12C renal) of over 100 µM and a TGI (MDA-MB-435) of over 100 µM. It also gave a TGI (SNB-19 CNS) of over 100 µM, a TGI (OVCAR-4 ovarian) of over 100 µM and a TGI (MCF7 breast) of over 100 µM. It also gave a TGI (HCC-2998 colon) of over 100 µM.
